From patent US20160022818A1, “PHARMACEUTICAL FORMULATION COMPRISING LIPASE INHIBITOR HAVING INCREASED DISSOLUTION RATE AND REDUCED SIDE EFFECTS, AND METHOD FOR PREPARING SAME” (UNIVERSITY-INDUSTRY FOUNDATION, YONSEI UNIVERSITY, priority 2013, published 2016)

How the values were obtained:
[1] = Comparative dissolution test; format: physicochemical; settings: 900 ml 1% sodium lauryl sulfate, paddle 75 rpm, HPLC-UV
Method: A comparative dissolution test was performed on the compositions prepared by Examples 1 to 3 and on the compositions prepared by Comparative Examples 1 and 2.

[2] = system: triglyceride levels in blood; test: Measurement of triglyceride levels in blood by using SD-rat model; format: in vivo; settings: SD-rats, oral 2.5 mg orlistat per kg
Method: Using 7-week old SD-rats (Samtaco Bio Korea Inc.), 1 ml of an olive oil (Samchun Pure Chemical Co., Ltd., Korea) was administered to each group and a drug suspended in a 0.25% HPMC (hydroxypropylmethyl cellulose) solution (Shin-Etsu chemical, Japan) was orally administered to the rats (corresponds to 2.5 mg of orlistat per kg of the body weight). The control group was administered with distilled water instead of the drug suspension. The blood of rats was collected for a fixed time interval, the triglyceride levels in the blood were measured by Cleantech TG-S of Asan Pharmaceutical, and, with the triglyceride level in the blood before testing used as a standard, changes in triglyceride levels in the blood after administration of an olive oil and drugs were plotted in FIG. 4 and Table 4.

[3] = Oily leakage test using SD-rat model; format: in vivo; settings: of 26 SD-rats; 0.5 ml olive oil, oral 5 mg orlistat per kg, 6 hours later
Method: 7-week old SD-rats were used, 0.5 ml of an olive oil was administered for each group, and a drug was suspended in a 0.25% HPMC solution to be orally administered to the rats (corresponds to 5 mg of orlistat per kg of the body weight). 6 hours later, the evaluation was assessed through the number of rats having oily leakage from their anuses.

CCCCCCCCCCC[C@@H](C[C@@H]1OC(=O)[C@H]1CCCCCC)OC(=O)[C@H](CC(C)C)NC=O [Comparative Example 1, orlistat]
Dissolution rate at 10 minutes ([1]; Table 1): 7.0%
Dissolution rate at 10 minutes ([1]; Table 3, various porous adsorbents): 7.0%
AUC0->12 h (triglyceride level in blood) ([2]; 1 ml olive oil): 648.0 ± 203.2 mg·h/dL
Cmax (triglyceride level in blood) ([2]; 1 ml olive oil): 140.7 ± 64.1 mg/dL
Triglyceride level in blood (words, FIG. 4) ([2]; olive oil): did not show an increase
Population having oily leakage [3]: 17 rats
